Inhibition and Kd data for 44 compounds are collected here from paper doi:10.1101/2022.05.04.490172v1 (biorxiv, 2022).

For experiment [1], the system named is BRN2 (POU3F2), luciferase reporter assay. Kind of experiment: cells. The note with it: for inhibition at 10 µM: read-out: % of Inhibition (Luciferase assay) / 10µM; for inhibition at 30 µM: read-out: % of Inhibition (Luciferase assay) / 30µM.
The target of experiment [2] is T1, BRN2 (POU3F2), purified BRN2^WT (Homo sapiens, UniProt P20265).
T1 sequence (P20265 264-415): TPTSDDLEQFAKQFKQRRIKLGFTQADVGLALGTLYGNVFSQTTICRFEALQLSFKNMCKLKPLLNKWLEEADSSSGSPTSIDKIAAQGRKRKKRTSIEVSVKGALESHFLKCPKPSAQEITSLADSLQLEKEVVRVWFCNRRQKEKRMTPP
Kind of experiment: microscale thermophoresis. The class given is binding. In general terms: In MST a laser heats a spot of the sample, and binding alters the fluorescence response.

Consider `c1ccc(NCc2csc3ccccc23)cc1` [B-11], for which, in experiment [1], the inhibition at 10 µM is -24.8% and the inhibition at 30 µM was -22.7%.
As for `Oc1ccc(/C=N/Nc2nc3ccccc3[nH]2)cc1O` [B-44], in experiment [1], the inhibition at 10 µM is 0.0894% and the inhibition at 30 µM was determined as 66.2%.
Take `c1ccc(-c2nc(-c3cccnc3)no2)cc1` [B-27]: in experiment [1], the inhibition at 30 µM was -166%.
For `C/C(=N\Nc1nc2ccccc2[nH]1)c1ccc(O)cc1` [B-46], in experiment [1], the inhibition at 10 µM was 6.41% and the inhibition at 30 µM is 46.7%.
On the same counts, the results for `Cc1ccccc1/C=N/Nc1nc2ccccc2[nH]1` [B-47] are -2.99% and 36.5%.
For `c1ccc(-c2csc(-c3ccccn3)n2)cc1` [B-24], in experiment [1], the inhibition at 10 µM is -145% and the inhibition at 30 µM was -67.1%.
As to `Cn1c(-c2ccc(CO)o2)nc2ccccc21` [B-56], in experiment [1], the inhibition at 10 µM is -114% and the inhibition at 30 µM is -134%.
On to `Cc1cc(C(=O)Nc2ccccc2)c2ccccc2n1` [B-1], for which, in experiment [1], the inhibition at 10 µM was 14.6% and the inhibition at 30 µM amounted to 1.27%.
Regarding `O=C(Oc1cccc(F)c1)c1cccc2ccccc12` [B-6], in experiment [1], the inhibition at 10 µM is -6.6% and the inhibition at 30 µM was -58%.
In the case of `c1ccc(-c2ccc(-c3nc4ccccc4[nH]3)o2)cc1` [B-66], in experiment [1], the inhibition at 10 µM was 11% and the inhibition at 30 µM worked out at 48%.
Take `Clc1ccccc1-c1ccc(-c2nc3ccccc3[nH]2)o1` [B-68]: in experiment [1], the inhibition at 10 µM came to 54.9% and the inhibition at 30 µM was 94.4%.
Consider `Cn1c(-c2ccc(-c3ccccc3)o2)nc2ccccc21` [B18], for which, in experiment [1], the inhibition at 10 µM came out at 97.6% and the inhibition at 30 µM stood at 99.4%.
On to `O=C(CSc1nc2ccccc2[nH]1)c1ccc(Cl)cc1` [B-16], for which, in experiment [1], the inhibition at 10 µM was 20.8% and the inhibition at 30 µM stood at 44.7%.
Turning to `CC/C(=N\Nc1nc2ccccc2[nH]1)c1ccc(O)cc1` [B-35], in experiment [1], the inhibition at 10 µM worked out at 0.336% and the inhibition at 30 µM is 50.1%.
Taken in the same sequence, the figures for `C/C(=N/Nc1nc2ccccc2[nH]1)c1ccc(C)cc1` [B-38] were 25.9% and 74.3%.
On to `Cn1c(N/N=C2/CCc3c(O)cccc32)nc2ccccc21` [B-36], for which, in experiment [1], the inhibition at 10 µM is -39.4% and the inhibition at 30 µM stood at 28.6%.
Consider `Cc1ccc(NCc2c[nH]c3ccccc23)cc1` [B-19], for which, in experiment [1], the inhibition at 10 µM was -4.93% and the inhibition at 30 µM was 62%.
On to `C/C(=N\Nc1nc2ccccc2[nH]1)c1ccc2ccccc2c1O` [B-45], for which, in experiment [1], the inhibition at 10 µM was found to be 77.2% and the inhibition at 30 µM was found to be 91.8%.
As for `Oc1ccc(Cl)cc1/C=N/Nc1nc2ccccc2[nH]1` [B-30], in experiment [1], the inhibition at 10 µM is -6.38% and the inhibition at 30 µM stood at 28.1%.
As to `Oc1ccccc1/C=N\Nc1nc2ccccc2[nH]1` [B-3], in experiment [1], the inhibition at 10 µM worked out at 69.2% and the inhibition at 30 µM turned out to be 75.5%.
Taken in the same sequence, the figures for `Oc1ccc(/C=N/Nc2nc3ccccc3[nH]2)c(O)c1O` [B-43] were 12.5% and -1.16%.
Taken in the same sequence, the figures for `Clc1ccc(-c2ccc(-c3nc4ccccc4[nH]3)o2)cc1Cl` [B-67] were -99.2% and 74%.
As for `Cc1cc(C)c2c(c1)/C(=N/Nc1nc3ccccc3[nH]1)CCC2` [B-33], in experiment [1], the inhibition at 10 µM is 21.6% and the inhibition at 30 µM amounted to 84.3%.
In the case of `Fc1ccc(Cl)cc1/C=N/Nc1nc2ccccc2s1` [B-4], in experiment [1], the inhibition at 10 µM came out at 19.5% and the inhibition at 30 µM came to 71.4%.
On to `Oc1ccccc1/C=N/Nc1nc2ccccc2[nH]1` [B-21], for which, in experiment [1], the inhibition at 10 µM was -1.45% and the inhibition at 30 µM worked out at 24.8%.
On to `O=C(Nc1ccc(F)cc1)c1ccccc1` [B-9], for which, in experiment [1], the inhibition at 10 µM was -61.5% and the inhibition at 30 µM was -58.1%.
For `O=C(CSc1nc2ccccc2[nH]1)c1ccccc1` [B-15], in experiment [1], the inhibition at 10 µM was -5% and the inhibition at 30 µM was 9.16%.
As to `Cc1cccc(C(=O)Oc2cccc3ccccc23)c1` [B-12], in experiment [1], the inhibition at 10 µM was found to be 5.02% and the inhibition at 30 µM was -8.87%.
`c1ccc2c(c1)CCC/C2=N\Nc1nc2ccccc2[nH]1` [B-32]: in experiment [1], the inhibition at 10 µM worked out at 32.4% and the inhibition at 30 µM is 77.2%.
On to `c1ccc(-c2ccc(N3CCOCC3)s2)cc1` [B-25], for which, in experiment [1], the inhibition at 10 µM is -2.68% and the inhibition at 30 µM was 51.5%.
Regarding `Cc1cc(C(=O)Nc2cccc(Cl)c2)c2cc(F)ccc2n1` [B-14], in experiment [1], the inhibition at 10 µM was found to be 41.6% and the inhibition at 30 µM was 32%.
Regarding `Clc1ccc2cc(-c3csc(-c4ccc[nH]4)n3)oc2c1` [B18-94], the Kd (as a rule, the constant that tells how readily two partners part at equilibrium) in experiment [2] stood at 2.04 µM.
Turning to `CC/C(=N\Nc1nc2ccccc2[nH]1)c1ccc(F)cc1` [B-34], in experiment [1], the inhibition at 10 µM is 33.1% and the inhibition at 30 µM worked out at 80%.
`Oc1ccc(Br)cc1/C=N/Nc1nc2ccccc2[nH]1` [B-52]: in experiment [1], the inhibition at 10 µM worked out at 27.1% and the inhibition at 30 µM amounted to 21.3%.
On to `CC/C(=N/Nc1nc2ccccc2[nH]1)c1cccc(Cl)c1` [B-37], for which, in experiment [1], the inhibition at 10 µM was 19.1% and the inhibition at 30 µM is 80.2%.
Regarding `Oc1cccc(/C=N/Nc2nc3ccccc3[nH]2)c1O` [B-59], the inhibition at 30 µM in experiment [1] was -145%.
On to `COc1ccc(CNc2ccccc2)c2ccccc12` [B-17], for which, in experiment [1], the inhibition at 10 µM turned out to be 3.97% and the inhibition at 30 µM was 12.2%.
Regarding `C/C(=N/Nc1nc2ccccc2[nH]1)c1ccccc1O` [B-42], in experiment [1], the inhibition at 10 µM was -3.59% and the inhibition at 30 µM was 66.8%.
On to `Oc1ccc(/C=N/Nc2nc3ccccc3[nH]2)cc1` [B-50], for which, in experiment [1], the inhibition at 10 µM is 66.3% and the inhibition at 30 µM worked out at 72.1%.
For `Oc1ccc(/C=N\Nc2nc3ccccc3[nH]2)cc1Cl` [B-62], in experiment [1], the inhibition at 10 µM was 88.2% and the inhibition at 30 µM came to 91.6%.
Regarding `c1ccc2c(c1)C(=NNc1nc3ccccc3[nH]1)c1ccccc1-2` [B-40], in experiment [1], the inhibition at 10 µM worked out at 93.2% and the inhibition at 30 µM stood at 98.8%.
On to `Oc1c(Br)cc(Br)cc1/C=N/Nc1nc2ccccc2[nH]1` [B-53], for which, in experiment [1], the inhibition at 10 µM was -127% and the inhibition at 30 µM was -80.2%.
With `O=C1c2ccccc2C(=O)N1c1nc(-c2ccccc2)cs1` [B-22], in experiment [1], the inhibition at 10 µM is -129% and the inhibition at 30 µM was -138%.
As to `Clc1cc(Br)ccc1-c1ccc(-c2nc3ccccc3[nH]2)o1` [B-70], in experiment [1], the inhibition at 10 µM stood at 88.1% and the inhibition at 30 µM was determined as 91.7%.
